Experimental data from patent US10472401B2, “Peptides and combination of peptides for use in immunotherapy against ovarian cancer and other cancers” (immatics biotechnologies GmbH, priority 2015, dated 2019).
Values belong to the molecule of their own block, whether it stands above or below them.

Assays:
CD8+ T cells = assay: In vitro immunogenicity: priming of CD8+ T cells with aAPCs loaded with peptide/MHC and anti-CD28, multimer staining; type: cell-based, human; conditions: HLA-A*02 restricted peptides, percentage of positive wells (among evaluable)
Excerpt: In order to obtain information regarding the immunogenicity of the TUMAPs of the present invention, the inventors performed investigations using an in vitro T-cell priming assay based on repeated stimulations of CD8+ T cells with artificial antigen presenting cells (aAPCs) loaded with peptide/MHC complexes and anti-CD28 antibody.
In order to perform in vitro stimulations by artificial antigen presenting cells loaded with peptide-MHC complex (pMHC) and anti-CD28 antibody, the inventors first isolated CD8+ T cells from fresh HLA-A*02 leukopheresis products via positive selection using CD8 microbeads (Miltenyi Biotec, Bergisch-Gladbach, Germany) of healthy donors obtained from the University clinics Mannheim, Germany, after informed consent.
PBMCs and isolated CD8+ lymphocytes were incubated in T-cell medium (TCM) until use consisting of RPMI-Glutamax (Invitrogen, Karlsruhe, Germany) supplemented with 10% heat inactivated human AB serum (PAN-Biotech, Aidenbach, Germany), 100 U/ml Penicillin/100 μg/ml Streptomycin (Cambrex, Cologne, Germany), 1 mM sodium pyruvate (CC Pro, Oberdorla, Germany), 20 μg/ml Gentamycin (Cambrex). 2.5 ng/ml IL-7 (PromoCell, Heidelberg, Germany) and 10 U/ml IL-2 (Novartis Pharma, Nürnberg, Germany) were also added to the TCM at this step.
Generation of pMHC/anti-CD28 coated beads, T-cell stimulations and readout was performed in a highly defined in vitro system using four different pMHC molecules per stimulation condition and 8 different pMHC molecules per readout condition.
The purified co-stimulatory mouse IgG2a anti human CD28 Ab 9.3 (Jung et al., 1987) was chemically biotinylated using Sulfo-N-hydroxysuccinimidobiotin as recommended by the manufacturer (Perbio, Bonn, Germany). Beads used were 5.6 μm diameter streptavidin coated polystyrene particles (Bangs Laboratories, Illinois, USA).
pMHC used for positive and negative control stimulations were A*0201/MLA-001 (peptide […] (SEQ ID NO. 664) from modified Melan-A/MART-1) and A*0201/DDX5-001 ([…] from DDX5, SEQ ID NO. 665), respectively.
800.000 beads/200 μl were coated in 96-well plates in the presence of 4×12.5 ng different biotin-pMHC, washed and 600 ng biotin anti-CD28 were added subsequently in a volume of 200 μl. Stimulations were initiated in 96-well plates by co-incubating […] CD8+ T cells with 2×10^5 washed coated beads in 200 μl TCM supplemented with 5 ng/ml IL-12 (PromoCell) for 3 days at 37° C. Half of the medium was then exchanged by fresh TCM supplemented with 80 U/ml IL-2 and incubating was continued for 4 days at 37° C. This stimulation cycle was performed for a total of three times. For the pMHC multimer readout using 8 different pMHC molecules per condition, a two-dimensional combinatorial coding approach was used as previously described (Andersen et al., 2012) with minor modifications encompassing coupling to 5 different fluorochromes. Finally, multimeric analyses were performed by staining the cells with Live/dead near IR dye (Invitrogen, Karlsruhe, Germany), CD8-FITC antibody clone SK1 (BD, Heidelberg, Germany) and fluorescent pMHC multimers. For analysis, a BD LSRII SORP cytometer equipped with appropriate lasers and filters was used. Peptide specific cells were calculated as percentage of total CD8+ cells. Evaluation of multimeric analysis was done using the FlowJo software (Tree Star, Oregon, USA). In vitro priming of specific multimer+ CD8+ lymphocytes was detected by comparing to negative control stimulations.
Exemplary flow cytometry results after TUMAP-specific multimer staining for two peptides of the invention are shown in FIG. 3 together with corresponding negative controls.

HLA-A*02:01 = HLA-A*02:01 (Homo sapiens, UniProt P04439, D140Y/D185E/D98H/E176V/E277Q/G131W/G231S/I119V/I121R/I166T/I218V/L300P/L318F/N151K/N90K/P208A/P217A/Q86G/Q94H/R138H/R169H/T345S); assay: MHC binding assay (UV-ligand exchange, ELISA of stabilized MHC complexes); conditions: MHC class I binding score; binding to HLA-A*02:01 ranged by peptide exchange yield (UV-ligand exchange, ELISA)
How it was run: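 Peptide-MHC complexes made by UV-ligand exchange, cleaving a UV-sensitive placeholder peptide and replacing it with the test peptide. Exchange yield measured by ELISA: streptavidin-captured monomers (diluted 100-fold, 1 h, 37 °C) detected with HRP anti-β2m and TMB, absorbance at 450 nm.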

PLA2G6 = target: T1, PLA2G6 (Homo sapiens, UniProt O60733); conditions: cited from earlier work
T1 construct: host or cells: ovarian cancer cells
T1 sequence (O60733 1-806): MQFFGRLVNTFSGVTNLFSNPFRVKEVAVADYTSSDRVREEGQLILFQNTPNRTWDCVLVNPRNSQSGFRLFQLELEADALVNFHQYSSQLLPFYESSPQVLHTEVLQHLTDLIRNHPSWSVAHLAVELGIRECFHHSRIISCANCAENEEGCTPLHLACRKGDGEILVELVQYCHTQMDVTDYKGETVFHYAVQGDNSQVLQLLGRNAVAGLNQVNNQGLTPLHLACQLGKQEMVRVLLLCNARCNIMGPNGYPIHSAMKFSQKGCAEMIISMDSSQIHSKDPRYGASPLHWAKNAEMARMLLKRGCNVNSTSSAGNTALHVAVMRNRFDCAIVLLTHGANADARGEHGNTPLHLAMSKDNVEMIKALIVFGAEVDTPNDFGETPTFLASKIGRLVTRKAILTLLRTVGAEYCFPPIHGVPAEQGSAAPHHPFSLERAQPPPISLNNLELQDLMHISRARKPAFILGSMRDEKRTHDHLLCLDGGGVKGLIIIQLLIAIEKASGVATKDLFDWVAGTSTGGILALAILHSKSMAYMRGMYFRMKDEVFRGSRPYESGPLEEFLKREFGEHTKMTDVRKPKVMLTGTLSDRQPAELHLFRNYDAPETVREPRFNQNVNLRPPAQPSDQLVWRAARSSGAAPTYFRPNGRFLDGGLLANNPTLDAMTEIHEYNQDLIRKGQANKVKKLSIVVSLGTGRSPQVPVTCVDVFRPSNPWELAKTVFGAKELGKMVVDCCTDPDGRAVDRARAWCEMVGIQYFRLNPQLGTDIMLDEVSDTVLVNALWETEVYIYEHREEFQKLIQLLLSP

human tumor cell lines = conditions: cited from earlier work
UBE2V1 = conditions: cited from earlier work
ATR = ATR (Homo sapiens, UniProt Q13535); conditions: pancreatic cancer cells in vitro, pancreatic tumor xenografts in vivo; cited from earlier work
Chain of ATR (Q13535 whole entry): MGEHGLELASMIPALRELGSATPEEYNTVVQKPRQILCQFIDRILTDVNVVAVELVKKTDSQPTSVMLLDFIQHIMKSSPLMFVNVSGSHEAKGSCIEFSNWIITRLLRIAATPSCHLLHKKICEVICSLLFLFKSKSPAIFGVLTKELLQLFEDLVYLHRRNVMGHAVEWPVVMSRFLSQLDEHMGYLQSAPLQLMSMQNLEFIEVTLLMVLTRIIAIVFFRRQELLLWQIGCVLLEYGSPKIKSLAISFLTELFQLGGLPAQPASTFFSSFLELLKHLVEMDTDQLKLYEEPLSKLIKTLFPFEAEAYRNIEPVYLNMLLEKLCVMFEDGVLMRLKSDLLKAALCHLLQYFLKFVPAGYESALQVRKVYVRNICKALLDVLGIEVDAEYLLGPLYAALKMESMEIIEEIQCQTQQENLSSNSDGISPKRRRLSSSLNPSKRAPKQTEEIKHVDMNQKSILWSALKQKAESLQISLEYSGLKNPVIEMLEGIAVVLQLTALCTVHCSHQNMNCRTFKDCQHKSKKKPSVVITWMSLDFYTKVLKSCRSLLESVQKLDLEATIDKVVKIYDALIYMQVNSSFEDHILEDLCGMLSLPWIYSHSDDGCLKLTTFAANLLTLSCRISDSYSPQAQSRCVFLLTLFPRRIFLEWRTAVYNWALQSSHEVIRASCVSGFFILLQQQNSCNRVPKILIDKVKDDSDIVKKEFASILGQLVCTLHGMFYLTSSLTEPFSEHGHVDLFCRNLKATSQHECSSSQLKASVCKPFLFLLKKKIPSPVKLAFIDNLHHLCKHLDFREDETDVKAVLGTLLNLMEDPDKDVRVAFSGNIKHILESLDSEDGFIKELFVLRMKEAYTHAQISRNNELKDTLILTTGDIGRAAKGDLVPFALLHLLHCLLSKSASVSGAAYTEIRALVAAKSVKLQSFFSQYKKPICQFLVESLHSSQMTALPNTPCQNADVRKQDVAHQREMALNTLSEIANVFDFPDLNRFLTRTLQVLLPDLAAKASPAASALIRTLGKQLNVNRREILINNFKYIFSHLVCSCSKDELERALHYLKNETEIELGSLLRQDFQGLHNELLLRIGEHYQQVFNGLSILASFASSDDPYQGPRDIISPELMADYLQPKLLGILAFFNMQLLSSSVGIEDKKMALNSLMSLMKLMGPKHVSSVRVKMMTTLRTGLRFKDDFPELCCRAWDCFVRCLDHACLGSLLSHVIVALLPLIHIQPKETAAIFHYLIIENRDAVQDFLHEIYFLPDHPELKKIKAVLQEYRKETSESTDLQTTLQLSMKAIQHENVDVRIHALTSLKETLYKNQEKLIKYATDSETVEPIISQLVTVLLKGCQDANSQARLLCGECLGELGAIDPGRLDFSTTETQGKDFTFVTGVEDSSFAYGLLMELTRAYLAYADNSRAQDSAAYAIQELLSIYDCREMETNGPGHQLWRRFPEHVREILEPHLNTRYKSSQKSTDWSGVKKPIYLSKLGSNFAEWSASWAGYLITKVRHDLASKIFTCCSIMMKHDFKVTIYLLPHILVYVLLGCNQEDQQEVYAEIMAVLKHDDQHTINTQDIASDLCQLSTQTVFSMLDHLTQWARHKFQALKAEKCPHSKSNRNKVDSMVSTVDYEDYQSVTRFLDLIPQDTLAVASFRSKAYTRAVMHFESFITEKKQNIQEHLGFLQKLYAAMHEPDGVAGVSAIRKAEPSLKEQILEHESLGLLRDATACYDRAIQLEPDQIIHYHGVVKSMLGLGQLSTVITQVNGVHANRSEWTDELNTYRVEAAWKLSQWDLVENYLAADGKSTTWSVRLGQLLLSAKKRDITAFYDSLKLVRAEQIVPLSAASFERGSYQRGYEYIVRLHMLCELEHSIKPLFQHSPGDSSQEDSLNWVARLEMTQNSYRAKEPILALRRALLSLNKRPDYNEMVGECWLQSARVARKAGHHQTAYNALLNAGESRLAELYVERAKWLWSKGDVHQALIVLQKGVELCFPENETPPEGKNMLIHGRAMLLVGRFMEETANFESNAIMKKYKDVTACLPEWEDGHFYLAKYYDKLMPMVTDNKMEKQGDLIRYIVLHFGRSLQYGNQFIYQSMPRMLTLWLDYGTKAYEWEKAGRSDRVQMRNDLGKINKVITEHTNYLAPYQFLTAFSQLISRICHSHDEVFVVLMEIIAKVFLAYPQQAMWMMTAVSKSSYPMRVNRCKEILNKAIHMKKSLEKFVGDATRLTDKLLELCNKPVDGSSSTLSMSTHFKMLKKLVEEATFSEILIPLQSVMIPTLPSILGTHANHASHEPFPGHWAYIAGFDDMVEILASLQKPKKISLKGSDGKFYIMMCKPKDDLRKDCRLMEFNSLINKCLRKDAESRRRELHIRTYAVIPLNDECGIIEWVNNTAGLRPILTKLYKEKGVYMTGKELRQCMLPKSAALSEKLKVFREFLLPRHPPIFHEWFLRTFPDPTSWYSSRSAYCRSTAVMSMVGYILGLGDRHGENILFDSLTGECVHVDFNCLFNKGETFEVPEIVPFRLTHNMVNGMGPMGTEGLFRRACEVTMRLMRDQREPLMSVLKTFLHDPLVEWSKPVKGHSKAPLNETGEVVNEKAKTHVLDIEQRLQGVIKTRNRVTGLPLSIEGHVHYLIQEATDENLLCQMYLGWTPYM
Chain of ATR (Q8WXE1 whole entry partner): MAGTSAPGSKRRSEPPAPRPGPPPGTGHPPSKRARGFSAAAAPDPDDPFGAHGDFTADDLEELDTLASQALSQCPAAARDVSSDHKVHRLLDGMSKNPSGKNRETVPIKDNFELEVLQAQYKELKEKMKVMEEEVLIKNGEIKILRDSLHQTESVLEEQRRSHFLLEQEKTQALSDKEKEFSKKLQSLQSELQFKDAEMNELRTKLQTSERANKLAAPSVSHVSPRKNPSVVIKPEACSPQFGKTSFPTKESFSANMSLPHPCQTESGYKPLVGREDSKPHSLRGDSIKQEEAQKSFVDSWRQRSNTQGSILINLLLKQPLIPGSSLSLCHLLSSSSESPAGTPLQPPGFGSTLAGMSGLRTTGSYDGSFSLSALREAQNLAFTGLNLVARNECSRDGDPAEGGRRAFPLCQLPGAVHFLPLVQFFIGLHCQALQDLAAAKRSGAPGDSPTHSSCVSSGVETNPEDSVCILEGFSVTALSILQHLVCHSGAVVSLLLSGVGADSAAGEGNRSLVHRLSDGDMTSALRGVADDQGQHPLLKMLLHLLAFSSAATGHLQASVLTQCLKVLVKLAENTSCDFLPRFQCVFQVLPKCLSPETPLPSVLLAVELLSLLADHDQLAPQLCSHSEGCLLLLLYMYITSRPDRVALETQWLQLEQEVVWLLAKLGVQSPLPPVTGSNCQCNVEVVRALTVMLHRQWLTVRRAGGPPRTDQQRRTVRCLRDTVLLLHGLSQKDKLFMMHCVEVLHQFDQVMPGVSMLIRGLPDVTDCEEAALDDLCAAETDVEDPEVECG

IMPDH2 = target: T2, IMPDH2 (Homo sapiens, UniProt P12268); conditions: patients with acute myeloid leukemia and chronic myeloid leukemia in blast crisis; cited from earlier work
T2 construct: host or cells: patients with AML and CML in blast crisis
T2 sequence (P12268 2-514 limits assumed): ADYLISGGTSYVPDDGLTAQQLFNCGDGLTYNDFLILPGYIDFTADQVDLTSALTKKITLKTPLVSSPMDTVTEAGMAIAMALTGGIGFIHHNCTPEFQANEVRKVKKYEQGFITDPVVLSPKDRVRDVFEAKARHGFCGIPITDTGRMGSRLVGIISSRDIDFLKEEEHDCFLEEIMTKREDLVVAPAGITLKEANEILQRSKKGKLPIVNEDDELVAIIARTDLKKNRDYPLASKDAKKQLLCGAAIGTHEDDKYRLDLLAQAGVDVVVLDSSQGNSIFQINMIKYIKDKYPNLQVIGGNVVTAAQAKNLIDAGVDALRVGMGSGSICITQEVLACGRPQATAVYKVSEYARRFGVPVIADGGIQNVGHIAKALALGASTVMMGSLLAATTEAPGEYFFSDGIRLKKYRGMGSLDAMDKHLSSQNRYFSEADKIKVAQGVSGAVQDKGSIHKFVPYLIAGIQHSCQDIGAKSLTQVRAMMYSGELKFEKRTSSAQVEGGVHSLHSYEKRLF

lung tumorigenesis = conditions: TLE1 transgenic mice; cited from earlier work
ALDH5A1 = target: T3, ALDH5A1 (Homo sapiens, UniProt P51649); conditions: cited from earlier work
T3 construct: host or cells: breast ductal carcinoma models
T3 sequence (P51649 48-535): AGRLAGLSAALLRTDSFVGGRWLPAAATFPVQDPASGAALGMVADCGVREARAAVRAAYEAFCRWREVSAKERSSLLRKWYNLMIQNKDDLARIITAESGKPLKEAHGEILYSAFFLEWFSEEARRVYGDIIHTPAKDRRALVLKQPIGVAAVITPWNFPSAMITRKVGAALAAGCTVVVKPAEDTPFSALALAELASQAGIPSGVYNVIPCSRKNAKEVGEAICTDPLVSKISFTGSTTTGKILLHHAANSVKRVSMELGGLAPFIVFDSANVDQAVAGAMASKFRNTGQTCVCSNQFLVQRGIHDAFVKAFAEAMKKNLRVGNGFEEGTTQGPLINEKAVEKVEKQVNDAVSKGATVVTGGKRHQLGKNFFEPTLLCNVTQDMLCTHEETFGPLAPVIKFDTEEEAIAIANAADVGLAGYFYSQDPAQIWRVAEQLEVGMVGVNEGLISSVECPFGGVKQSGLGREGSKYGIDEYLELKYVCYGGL

ovarian cancer = conditions: clinical studies; cited from earlier work

Peptide exchange (HLA-A*02:01): ″+++″ (≥50% = +++)
Molecule: 443 (GLWEIENNPTV; listed as Homo sapiens) [compound 443]
Wells positive [%] (CD8+ T cells): ″+″ (<20% = +)

Peptide exchange (HLA-A*02:01): ″++++″ (≥75% = ++++)
Molecule: 460 (AMLEKNYKL; listed as Homo sapiens) [compound 460]
Wells positive [%] (CD8+ T cells): ″+″ (<20% = +)

Peptide exchange (HLA-A*02:01): ″+++″ (≥50% = +++)
Molecule: 489 (KMWEELPEVV; listed as Homo sapiens) [compound 489]
Wells positive [%] (CD8+ T cells): ″+″ (<20% = +)

Peptide exchange (HLA-A*02:01): ″++″ (≥20% = ++)
Molecule: 499 (KIFDIDEAEEGV; listed as Homo sapiens) [compound 499]
Wells positive [%] (CD8+ T cells): ″+″ (<20% = +)

Peptide exchange (HLA-A*02:01): ″++″ (≥20% = ++)
Molecule: 511 (FLDPYCSASV; listed as Homo sapiens) [compound 511]
Wells positive [%] (CD8+ T cells): ″+″ (<20% = +)

Peptide exchange (HLA-A*02:01): ″++″ (≥20% = ++)
Molecule: 603 (FLIEPEHVNTV; listed as Homo sapiens) [compound 603]
Wells positive [%] (CD8+ T cells): ″+″ (<20% = +)

Molecule: O=C1O/C(=C/Br)CCC1c1cccc2ccccc12 (stereo not shown) [Bromoenol lactone]
apoptosis and cell cycle of ovarian cancer cells (PLA2G6): increase in apoptosis in ovarian cancer cells as well as inducing cell cycle arrest in S- and G2/M-phases

Molecule: CN1CC[C@H](c2c(O)cc(O)c3c(=O)cc(-c4ccccc4Cl)oc23)[C@H](O)C1 [Flavopiridol]
human tumor cell proliferation (human tumor cell lines): inhibition of human tumor cell proliferation

Molecule: Cc1ccc(S(=O)(=O)c2ccc([N+](=O)[O-])o2)cc1 [NSC697923]
proliferation and survival of diffuse large B-cell lymphoma cells (UBE2V1): inhibit proliferation and survival of diffuse large B-cell lymphoma cells

Molecule: CNCc1ccc(-c2cc(-c3nc(-c4ccc(S(=O)(=O)C(C)C)cc4)cnc3N)on2)cc1 [VE-822]
radiosensitization and chemosensitization (ATR): radiosensitize and chemosensitize pancreatic cancer cells in vitro and pancreatic tumor xenografts in vivo

Molecule: NC(=O)c1cccc([C@@H]2O[C@H](CO)[C@@H](O)[C@H]2O)c1 [benzamide riboside]
clinical response (IMPDH2): good clinical response

Molecule: NC(=O)c1csc([C@@H]2O[C@H](CO)[C@@H](O)[C@H]2O)n1 [tiazofurin]
clinical response (IMPDH2): good clinical response

Molecule: CC(/C=C/C(=O)NO)=C\[C@@H](C)C(=O)c1ccc(N(C)C)cc1 [trichostatin A]
lung tumorigenesis (lung tumorigenesis): significantly inhibited lung tumorigenesis

Molecule: CCCC(CCC)C(=O)O [valproic acid]
net proliferation of breast ductal carcinoma models (ALDH5A1): inhibit net proliferation

Molecule: MORAb-003: anti-folate receptor alpha antibody
clinical results in ovarian cancer patients (ovarian cancer): only conferred limited clinical benefit to ovarian cancer patients

Molecule: bevacizumab
clinical results in ovarian cancer patients (ovarian cancer): appears to be advantageous

Molecule: catumaxomab
clinical results in ovarian cancer patients (ovarian cancer): promising results in phase II and III studies

Molecule: ipilimumab
clinical results in ovarian cancer patients (ovarian cancer): significant anti-tumor effects in ovarian cancer patients

Molecule: oregovomab
clinical results in ovarian cancer patients (ovarian cancer): promising results in phase II and III studies
